Test results published in ChEMBL document CHEMBL4020766, “Design and synthesis of potent inhibitors of the mono(ADP-ribosyl)transferase, PARP14” (Bioorg Med Chem Lett, 2017).

How the values were obtained:
[1] = target: T1, Poly [ADP-ribose] polymerase tankyrase-1 (Homo sapiens, UniProt O95271); test: Inhibition of recombinant human His6-tagged PARP5a catalytic domain (1091 to 1325 residues) expressed in Escherichia coli BL21(DE3) preincubated for 15 mins followed by biotinylated NAD+ addition by chemiluminescence assay
T1 sequence (O95271 whole entry): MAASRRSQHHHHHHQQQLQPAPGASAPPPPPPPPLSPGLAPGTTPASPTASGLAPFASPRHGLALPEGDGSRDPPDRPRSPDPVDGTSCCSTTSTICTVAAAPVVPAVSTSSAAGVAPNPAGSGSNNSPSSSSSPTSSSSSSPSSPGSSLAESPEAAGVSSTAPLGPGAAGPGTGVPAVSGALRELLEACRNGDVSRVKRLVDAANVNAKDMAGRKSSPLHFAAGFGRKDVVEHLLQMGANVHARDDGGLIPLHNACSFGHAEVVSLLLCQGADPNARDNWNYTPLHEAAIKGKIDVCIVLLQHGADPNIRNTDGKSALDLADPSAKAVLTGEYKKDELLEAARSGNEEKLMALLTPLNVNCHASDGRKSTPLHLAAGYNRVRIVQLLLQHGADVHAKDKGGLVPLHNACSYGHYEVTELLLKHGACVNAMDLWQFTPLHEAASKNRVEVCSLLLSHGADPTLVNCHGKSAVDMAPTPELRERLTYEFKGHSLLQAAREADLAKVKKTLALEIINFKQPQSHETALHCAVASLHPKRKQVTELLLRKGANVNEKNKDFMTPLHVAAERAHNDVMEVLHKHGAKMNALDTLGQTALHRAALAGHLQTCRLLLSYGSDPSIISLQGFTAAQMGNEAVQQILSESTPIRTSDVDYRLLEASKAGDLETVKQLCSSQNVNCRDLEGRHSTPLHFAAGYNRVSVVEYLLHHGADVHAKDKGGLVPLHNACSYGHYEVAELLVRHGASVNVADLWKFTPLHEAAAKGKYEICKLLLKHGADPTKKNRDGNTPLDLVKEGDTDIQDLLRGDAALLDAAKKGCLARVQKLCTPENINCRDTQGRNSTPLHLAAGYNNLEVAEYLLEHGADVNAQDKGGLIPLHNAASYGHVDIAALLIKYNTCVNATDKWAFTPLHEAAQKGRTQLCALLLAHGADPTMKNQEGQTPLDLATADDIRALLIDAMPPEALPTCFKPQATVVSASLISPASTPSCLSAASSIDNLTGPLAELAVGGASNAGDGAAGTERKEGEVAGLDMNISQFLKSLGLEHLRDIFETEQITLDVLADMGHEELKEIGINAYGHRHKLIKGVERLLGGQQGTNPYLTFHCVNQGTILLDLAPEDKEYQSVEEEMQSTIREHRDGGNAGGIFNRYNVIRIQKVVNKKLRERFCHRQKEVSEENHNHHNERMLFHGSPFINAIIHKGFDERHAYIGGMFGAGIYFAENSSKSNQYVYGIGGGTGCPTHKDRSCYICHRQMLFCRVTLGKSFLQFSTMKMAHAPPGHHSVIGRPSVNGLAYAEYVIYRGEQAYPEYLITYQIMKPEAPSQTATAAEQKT

[2] = target: T2, Protein mono-ADP-ribosyltransferase PARP15 (Homo sapiens, UniProt Q460N3); test: Inhibition of His6-tagged PARP15 (unknown origin) preincubated for 15 mins followed by biotinylated NAD+ addition by chemiluminescence assay
T2 sequence (Q460N3 whole entry): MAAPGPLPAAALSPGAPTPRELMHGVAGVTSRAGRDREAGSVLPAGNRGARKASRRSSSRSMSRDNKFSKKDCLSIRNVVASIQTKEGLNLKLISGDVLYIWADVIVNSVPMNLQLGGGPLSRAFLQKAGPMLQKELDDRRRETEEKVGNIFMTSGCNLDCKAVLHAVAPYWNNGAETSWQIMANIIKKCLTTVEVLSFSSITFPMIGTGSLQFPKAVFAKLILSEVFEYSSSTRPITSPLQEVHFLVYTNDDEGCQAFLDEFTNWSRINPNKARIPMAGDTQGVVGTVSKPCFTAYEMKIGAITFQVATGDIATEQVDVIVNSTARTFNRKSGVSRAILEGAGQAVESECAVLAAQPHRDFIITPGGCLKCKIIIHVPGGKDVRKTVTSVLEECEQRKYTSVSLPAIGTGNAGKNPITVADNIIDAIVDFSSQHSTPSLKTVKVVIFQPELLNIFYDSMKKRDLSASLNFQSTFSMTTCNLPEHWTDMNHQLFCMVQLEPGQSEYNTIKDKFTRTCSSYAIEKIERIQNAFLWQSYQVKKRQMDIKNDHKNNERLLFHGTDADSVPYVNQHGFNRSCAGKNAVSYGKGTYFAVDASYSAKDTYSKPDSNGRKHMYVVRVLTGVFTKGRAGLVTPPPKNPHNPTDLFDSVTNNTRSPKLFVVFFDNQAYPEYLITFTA

[3] = target: T3, Protein mono-ADP-ribosyltransferase PARP14 (Homo sapiens, UniProt Q460N5); test: Inhibition of recombinant human His6-tagged PARP14 catalytic/WWE domain (1459 to 1801 residues) expressed in Escherichia coli BL21(DE3) preincubated for 15 mins followed by biotinylated NAD+ addition by chemiluminescence assay
[4] = target: T4, Poly [ADP-ribose] polymerase 1 (Homo sapiens, UniProt P09874); test: Inhibition of recombinant human full length His6-tagged PARP1 expressed in Escherichia coli BL21(DE3) preincubated for 15 mins followed by biotinylated NAD+ addition by chemiluminescence assay
[5] = target: T5, Protein mono-ADP-ribosyltransferase PARP12 (Homo sapiens, UniProt Q9H0J9); test: Inhibition of His6-tagged PARP12 (unknown origin) preincubated for 15 mins followed by biotinylated NAD+ addition by chemiluminescence assay
T5 sequence (Q9H0J9 whole entry): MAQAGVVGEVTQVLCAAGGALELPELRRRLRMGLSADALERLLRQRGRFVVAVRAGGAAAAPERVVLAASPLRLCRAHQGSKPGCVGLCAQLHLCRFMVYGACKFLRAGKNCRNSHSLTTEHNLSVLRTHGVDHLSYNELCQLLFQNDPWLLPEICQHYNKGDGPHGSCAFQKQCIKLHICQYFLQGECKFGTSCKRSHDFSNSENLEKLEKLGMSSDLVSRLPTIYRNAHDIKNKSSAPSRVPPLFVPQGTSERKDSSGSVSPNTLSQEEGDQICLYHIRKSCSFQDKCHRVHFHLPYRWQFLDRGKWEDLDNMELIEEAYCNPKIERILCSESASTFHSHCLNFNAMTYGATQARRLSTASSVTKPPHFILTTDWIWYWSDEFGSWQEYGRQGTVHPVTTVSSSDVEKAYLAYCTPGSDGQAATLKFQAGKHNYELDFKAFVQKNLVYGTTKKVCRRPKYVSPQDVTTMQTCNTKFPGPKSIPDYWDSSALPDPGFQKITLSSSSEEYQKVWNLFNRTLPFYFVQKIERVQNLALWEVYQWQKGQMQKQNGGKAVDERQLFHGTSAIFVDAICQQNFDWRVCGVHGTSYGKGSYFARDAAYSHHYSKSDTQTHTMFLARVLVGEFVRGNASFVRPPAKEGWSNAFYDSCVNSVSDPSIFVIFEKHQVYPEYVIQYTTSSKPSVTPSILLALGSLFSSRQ

Homo sapiens = species on record: Homo sapiens; test: Selectivity ratio of IC50 for recombinant human His6-tagged PARP5a catalytic domain (1091 to 1325 residues) to IC50 for recombinant human His6-tagged PARP14 catalytic/WWE domain (1459 to 1801 residues)
[6] = target: T6, Protein mono-ADP-ribosyltransferase PARP16 (Homo sapiens, UniProt Q8N5Y8); test: Inhibition of His6-tagged PARP16 (unknown origin) preincubated for 15 mins followed by biotinylated NAD+ addition by chemiluminescence assay
T6 sequence (Q8N5Y8 whole entry): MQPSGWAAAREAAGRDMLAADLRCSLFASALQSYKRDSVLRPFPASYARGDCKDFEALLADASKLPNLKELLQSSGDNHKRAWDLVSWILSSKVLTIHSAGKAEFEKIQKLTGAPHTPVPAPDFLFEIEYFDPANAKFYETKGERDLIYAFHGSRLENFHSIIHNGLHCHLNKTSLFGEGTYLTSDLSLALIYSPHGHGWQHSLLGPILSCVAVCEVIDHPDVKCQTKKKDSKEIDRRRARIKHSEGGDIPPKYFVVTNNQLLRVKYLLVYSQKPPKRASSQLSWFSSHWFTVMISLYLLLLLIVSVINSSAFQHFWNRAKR

[7] = target: T3, Protein mono-ADP-ribosyltransferase PARP14; test: Inhibition of recombinant human His6-tagged PARP14 catalytic/WWE domain (1459 to 1801 residues) expressed in Escherichia coli BL21(DE3) at 5 uM preincubated for 15 mins followed by biotinylated NAD+ addition by chemiluminescence assay relative to control
[8] = target: T4, Poly [ADP-ribose] polymerase 1; test: Inhibition of recombinant human full length His6-tagged PARP1 expressed in Escherichia coli BL21(DE3) at 5 uM preincubated for 15 mins followed by biotinylated NAD+ addition by chemiluminescence assay relative to control

T4 sequence (P09874 whole entry): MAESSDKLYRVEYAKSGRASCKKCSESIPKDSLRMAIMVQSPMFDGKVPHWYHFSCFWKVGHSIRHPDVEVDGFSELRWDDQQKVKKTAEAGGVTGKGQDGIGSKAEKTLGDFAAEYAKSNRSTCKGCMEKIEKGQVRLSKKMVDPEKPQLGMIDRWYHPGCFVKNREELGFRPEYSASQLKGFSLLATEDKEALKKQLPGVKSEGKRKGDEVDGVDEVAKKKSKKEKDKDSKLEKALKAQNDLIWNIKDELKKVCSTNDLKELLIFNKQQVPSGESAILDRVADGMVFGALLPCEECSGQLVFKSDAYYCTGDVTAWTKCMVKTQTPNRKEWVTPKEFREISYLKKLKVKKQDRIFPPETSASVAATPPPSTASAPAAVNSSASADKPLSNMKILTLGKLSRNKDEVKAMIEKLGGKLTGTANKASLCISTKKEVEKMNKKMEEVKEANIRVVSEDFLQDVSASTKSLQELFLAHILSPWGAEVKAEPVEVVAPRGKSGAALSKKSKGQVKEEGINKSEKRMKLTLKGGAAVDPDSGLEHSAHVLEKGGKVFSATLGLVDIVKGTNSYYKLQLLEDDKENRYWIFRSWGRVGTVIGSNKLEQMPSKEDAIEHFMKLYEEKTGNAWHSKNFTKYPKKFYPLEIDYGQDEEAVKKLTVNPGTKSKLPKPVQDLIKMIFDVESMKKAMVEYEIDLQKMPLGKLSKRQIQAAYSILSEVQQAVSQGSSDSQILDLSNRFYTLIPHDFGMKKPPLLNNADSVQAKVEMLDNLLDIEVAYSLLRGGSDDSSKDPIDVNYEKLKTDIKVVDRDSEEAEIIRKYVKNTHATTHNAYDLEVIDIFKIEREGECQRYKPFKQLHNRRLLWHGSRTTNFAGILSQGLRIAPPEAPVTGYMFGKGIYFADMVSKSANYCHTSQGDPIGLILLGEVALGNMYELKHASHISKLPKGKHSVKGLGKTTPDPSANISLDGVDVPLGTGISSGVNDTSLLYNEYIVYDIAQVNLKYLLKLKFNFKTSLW
T3 sequence (Q460N5 whole entry, the tested form may be a part): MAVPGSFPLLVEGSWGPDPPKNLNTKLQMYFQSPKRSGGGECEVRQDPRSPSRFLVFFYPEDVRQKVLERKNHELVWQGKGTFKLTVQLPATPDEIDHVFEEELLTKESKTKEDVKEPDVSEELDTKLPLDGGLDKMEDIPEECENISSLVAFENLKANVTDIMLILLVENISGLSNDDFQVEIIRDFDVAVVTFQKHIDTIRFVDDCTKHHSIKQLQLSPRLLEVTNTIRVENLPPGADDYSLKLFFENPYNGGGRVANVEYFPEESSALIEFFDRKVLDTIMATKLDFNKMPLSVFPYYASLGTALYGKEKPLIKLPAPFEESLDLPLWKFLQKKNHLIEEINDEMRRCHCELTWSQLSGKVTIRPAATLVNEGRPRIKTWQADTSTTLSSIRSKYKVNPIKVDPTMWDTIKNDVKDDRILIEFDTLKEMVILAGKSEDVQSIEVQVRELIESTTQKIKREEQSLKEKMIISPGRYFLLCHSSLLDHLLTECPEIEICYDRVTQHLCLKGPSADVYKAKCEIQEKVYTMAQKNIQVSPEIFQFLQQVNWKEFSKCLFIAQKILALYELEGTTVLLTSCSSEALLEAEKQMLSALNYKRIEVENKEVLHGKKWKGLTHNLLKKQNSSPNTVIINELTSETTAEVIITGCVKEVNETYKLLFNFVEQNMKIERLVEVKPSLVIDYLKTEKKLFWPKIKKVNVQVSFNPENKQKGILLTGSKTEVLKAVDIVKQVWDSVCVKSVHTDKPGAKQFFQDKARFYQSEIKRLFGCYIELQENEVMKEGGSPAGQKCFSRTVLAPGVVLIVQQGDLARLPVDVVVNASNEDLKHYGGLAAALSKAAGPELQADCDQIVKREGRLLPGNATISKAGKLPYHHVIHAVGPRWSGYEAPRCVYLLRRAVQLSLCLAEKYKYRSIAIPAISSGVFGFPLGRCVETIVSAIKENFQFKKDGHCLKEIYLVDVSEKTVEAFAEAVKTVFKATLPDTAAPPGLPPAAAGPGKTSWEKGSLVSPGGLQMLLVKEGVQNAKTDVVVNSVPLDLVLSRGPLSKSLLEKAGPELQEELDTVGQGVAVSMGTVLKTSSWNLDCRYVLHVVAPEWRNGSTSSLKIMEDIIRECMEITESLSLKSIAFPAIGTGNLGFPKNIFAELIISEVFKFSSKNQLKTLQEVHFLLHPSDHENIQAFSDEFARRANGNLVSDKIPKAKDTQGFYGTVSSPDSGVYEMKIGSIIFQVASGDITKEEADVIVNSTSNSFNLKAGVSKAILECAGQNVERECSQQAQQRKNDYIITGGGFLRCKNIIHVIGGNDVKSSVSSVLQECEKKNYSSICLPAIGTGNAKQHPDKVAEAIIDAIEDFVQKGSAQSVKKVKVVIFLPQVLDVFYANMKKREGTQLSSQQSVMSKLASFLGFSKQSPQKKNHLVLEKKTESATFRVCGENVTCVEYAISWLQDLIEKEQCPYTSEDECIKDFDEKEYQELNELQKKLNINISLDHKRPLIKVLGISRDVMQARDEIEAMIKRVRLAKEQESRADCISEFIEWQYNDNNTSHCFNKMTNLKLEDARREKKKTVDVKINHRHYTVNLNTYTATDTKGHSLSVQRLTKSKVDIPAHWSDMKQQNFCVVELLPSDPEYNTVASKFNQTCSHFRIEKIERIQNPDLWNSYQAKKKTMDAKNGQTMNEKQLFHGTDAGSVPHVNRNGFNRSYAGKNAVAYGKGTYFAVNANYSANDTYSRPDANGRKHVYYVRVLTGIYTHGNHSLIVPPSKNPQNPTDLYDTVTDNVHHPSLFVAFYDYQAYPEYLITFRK

| Compound | IC50 ([1]; read-out: IC50) | IC50 ([3]; read-out: IC50) | IC50 [4] | Ratio IC50 (Homo sapiens) | also measured |
| --- | --- | --- | --- | --- | --- |
| NC(=O)c1cccc(NC(=O)/C=C\C(=O)N2CCN(c3ccc(-c4ccccc4)cc3)CC2)c1 | 9.8 µM | 4.2 µM | 0.8 µM | – | – |
| CCOC(=O)C1CCN(C(=O)/C=C\C(=O)Nc2cccc(C(N)=O)c2)CC1 | – | – | – | – | inhibition [7]: 28% |
| NC(=O)c1cccc(NC(=O)/C=C\C(=O)N2CCCCC2c2ccccc2)c1 (stereo unspecified) | – | 1.1 µM | – | – | – |
| NC(=O)c1cccc(NC(=O)/C=C\C(=O)N2CCC(c3ccccc3)CC2)c1 | – | 2.2 µM | – | – | – |
| NC(=O)c1cccc(NC(=O)/C=C\C(=O)N2CCC(CCc3ccccc3)CC2)c1 | – | 0.65 µM | – | – | IC50 ([3]; read-out: pIC50 (converted)): 0.676 µM |
| CCOC(=O)C1CCCN(C(=O)/C=C\C(=O)Nc2cccc(C(N)=O)c2)C1 (stereo unspecified) | – | – | – | – | inhibition [7]: 21% |
| NC(=O)c1cccc(NC(=O)/C=C\C(=O)N2CCN(c3ccccc3)CC2)c1 | 6 µM | 0.9 µM | 0.37 µM | 6.7 | – |
| NC(=O)c1cccc(NC(=O)/C=C\C(=O)N2CCN(c3ncccn3)CC2)c1 | – | 2.8 µM | – | – | – |
| NC(=O)c1cccc(NC(=O)/C=C\C(=O)N2CCC(Cc3ccccc3)CC2)c1 | 4.8 µM | 0.45 µM | 0.23 µM | 11 | – |

Second part, led by results:

| IC50 ([1]; read-out: IC50) | IC50 ([3]; read-out: IC50) | IC50 [4] | Ratio IC50 (Homo sapiens) | Compound | also measured |
| --- | --- | --- | --- | --- | --- |
| 2.7 µM | 0.7 µM | 0.56 µM | 3.9 | NC(=O)c1cccc(NC(=O)/C=C\C(=O)N2CCN(c3ccc(F)cc3)CC2)c1 | IC50 [2]: 0.52 µM; IC50 [5]: 8.2 µM; IC50 [6]: 0.56 µM |
| 0.9 µM | 0.16 µM | 0.22 µM | 5.6 | NC(=O)c1cccc(NC(=O)/C=C\C(=O)N2CCN(c3ccc(Cl)cc3)CC2)c1 | IC50 ([1]; read-out: pIC50 (converted)): 0.977 µM; IC50 ([3]; read-out: pIC50 (converted)): 0.617 µM |
| – | 3.5 µM | – | – | NC(=O)c1cccc(NC(=O)/C=C\C(=O)N2CCCCC2Cc2ccccc2)c1 (stereo unspecified) | – |
| 8 µM | 0.27 µM | 0.27 µM | 30 | NC(=O)c1cccc(NC(=O)/C=C\C(=O)N2CCC(c3ccc(F)cc3)CC2)c1 | – |
| – | 0.37 µM | – | – | CC(C)(C)OC(=O)N1CCN(C(=O)/C=C\C(=O)Nc2cccc(C(N)=O)c2)CC1 | – |
| – | 2.4 µM | – | – | CCOC(=O)CC1CCN(C(=O)/C=C\C(=O)Nc2cccc(C(N)=O)c2)CC1 | IC50 ([3]; read-out: pIC50 (converted)): 0.407 µM |
| – | 3.4 µM | – | – | COc1ccc(N2CCN(C(=O)/C=C\C(=O)Nc3cccc(C(N)=O)c3)CC2)cc1 | – |
| – | 1.4 µM | – | – | NC(=O)c1cccc(NC(=O)/C=C\C(=O)N2CCCC(Oc3ccccc3)C2)c1 (stereo unspecified) | inhibition [8]: 90% |
| 9.4 µM | 0.41 µM | 0.51 µM | 23 | NC(=O)c1cccc(NC(=O)/C=C\C(=O)N2CCN(c3ccccc3F)CC2)c1 | – |
| – | > 20 µM | – | – | NC(=O)c1cccc(N2C(=O)CC(N3CCN(c4ccccc4F)CC3)C2=O)c1 (stereo unspecified) | – |
| 2.7 µM | 0.69 µM | 1.6 µM | – | NC(=O)c1cccc(NC(=O)/C=C\C(=O)N2CCCC(c3ccccc3)C2)c1 (stereo unspecified) | IC50 ([1]; read-out: pIC50 (converted)): 0.575 µM |
